Laboratory results reported in patent US10980892B2, “Methods for the treatment of leptomeningeal carcinomatosis” (Angiochem Inc., priority 2015, dated 2021).
Each block holds one compound with its values, some of them ahead of it.

Experiments:
[1] = tested on: leptomeningeal carcinomatosis; experiment: Kaplan-Meier estimates of survival for subjects with LC; format: in vivo, human; settings: compared to historical median overall survival of 3-6 months following aggressive treatment
From the text: The Kaplan-Meier method was used to estimate the overall survival of LC subjects treated with ANG1005.

[2] = tested on: leptomeningeal carcinomatosis (LC); experiment: Treatment of LC in breast cancer subjects, CNS RECIST brain parenchymal tumor response; format: in vivo, human; settings: 600 mg/m^2 iv tri-weekly
Procedure: Twenty-eight subjects diagnosed with LC were administered 600 mg/m^2 of ANG1005 intravenously on a tri-weekly schedule. The subjects received between one and nine cycles of ANG1005.
The results of the treatment of the subjects according to CNS Response Evaluation Criteria in Solid Tumors (RECIST) based on brain parenchymal tumor response is shown in Table 2.

[3] = tested on: leptomeningeal carcinomatosis; experiment: Treatment of individual LC subjects with ANG1005 (Subjects 2, 3, 4, 8); format: in vivo, human
From the text: Subject 2 presented at the time of treatment with ANG1005 with an active tumor extending from the deep portion of the surgical cavity to the right tentorial surface and along the lateral right temporal occipital dural surface. Subject 2 started treatment with ANG1005 in October 2014 and received 7 cycles (once every three weeks). Treatment was terminated due to clinical disease progression.
Subject 3 presented at the time of treatment with ANG1005 with numerous (>10) brain metastases all of which had increased in size despite prior treatment. Extensive scattered osseous metastatic disease in head/neck. After presenting with a numb chin (left trigeminal cranial nerve deficits), Subject 3 was also found to have leptomeningeal disease. Subject 3 started treatment with ANG1005 in September 2014 and received 5 cycles (once every three weeks). Treatment was terminated due to adverse event (pneumonia).
Subject 4 is a person diagnosed in October 2011 with HER2+/ER−/PgR− ductal carcinoma in situ. In November 2012, Subject 4 was diagnosed with brain metastases, and in March 2015 the brain metastases relapsed with leptomeningeal carcinomatosis. Subject 4 previously received several courses of therapy including carboplatin from October to November 2011, denosumab from November 2011 to November 2012, paclitaxel from December 2011 to March 2012, WBRT, transtuzumab from May 2012 to November 2012, and kadcyla from April 2013 to December 2014. Subject 4 presented at the time of treatment with ANG1005 with parenchymal metastases present in the cerebellum and widespread LC of the cerebellum and cerebral hemispheres. In addition, Subject 4 presented with mild ventricular enlargement with compression upon the fourth ventricle and cutflow tracts. Subject 4 started treatment with ANG1005 in March 2015 and received 8 cycles (once every three weeks). Subject withdrew from treatment due to low performance scores.
Subject 8 started treatment with ANG1005 in April 2015 and received 2 cycles (once every three weeks). Subject 8 terminated from treatment in July 2015 due to clinical progression.

LRP receptor [4] = experiment: Inhibition of brain uptake of an Angiopep conjugate by LRP ligands
From the text: (§1) The methods of the invention may be especially useful in treating cancers having cells that express low density lipoprotein-related protein (LRP) receptor. The LRP receptor is expressed on the surface of cells, and is capable of binding to various substrates including aprotinin. The polypeptides described herein were designed based on the consensus kunitz-domain sequences that act as LRP receptor ligands (see, e.g., PCT Publication No. WO 2004/060403). Uptake of the conjugates including Angiopep-1 or Angiopep-2 is inhibited by LRP ligands, thus indicating involvement of LRP in this process.

LRP receptor [5] = target: T1, LRP receptor (Homo sapiens, UniProt Q07954); experiment: Inhibition of uptake of Angiopep conjugates into cells; format: cell-based; settings: Angiopep-2 10 or 100 μM
T1 construct: The LRP receptor is expressed on the surface of cells; endogenous in cells
From the text: as §1

T1 sequence (Q07954 20-4544): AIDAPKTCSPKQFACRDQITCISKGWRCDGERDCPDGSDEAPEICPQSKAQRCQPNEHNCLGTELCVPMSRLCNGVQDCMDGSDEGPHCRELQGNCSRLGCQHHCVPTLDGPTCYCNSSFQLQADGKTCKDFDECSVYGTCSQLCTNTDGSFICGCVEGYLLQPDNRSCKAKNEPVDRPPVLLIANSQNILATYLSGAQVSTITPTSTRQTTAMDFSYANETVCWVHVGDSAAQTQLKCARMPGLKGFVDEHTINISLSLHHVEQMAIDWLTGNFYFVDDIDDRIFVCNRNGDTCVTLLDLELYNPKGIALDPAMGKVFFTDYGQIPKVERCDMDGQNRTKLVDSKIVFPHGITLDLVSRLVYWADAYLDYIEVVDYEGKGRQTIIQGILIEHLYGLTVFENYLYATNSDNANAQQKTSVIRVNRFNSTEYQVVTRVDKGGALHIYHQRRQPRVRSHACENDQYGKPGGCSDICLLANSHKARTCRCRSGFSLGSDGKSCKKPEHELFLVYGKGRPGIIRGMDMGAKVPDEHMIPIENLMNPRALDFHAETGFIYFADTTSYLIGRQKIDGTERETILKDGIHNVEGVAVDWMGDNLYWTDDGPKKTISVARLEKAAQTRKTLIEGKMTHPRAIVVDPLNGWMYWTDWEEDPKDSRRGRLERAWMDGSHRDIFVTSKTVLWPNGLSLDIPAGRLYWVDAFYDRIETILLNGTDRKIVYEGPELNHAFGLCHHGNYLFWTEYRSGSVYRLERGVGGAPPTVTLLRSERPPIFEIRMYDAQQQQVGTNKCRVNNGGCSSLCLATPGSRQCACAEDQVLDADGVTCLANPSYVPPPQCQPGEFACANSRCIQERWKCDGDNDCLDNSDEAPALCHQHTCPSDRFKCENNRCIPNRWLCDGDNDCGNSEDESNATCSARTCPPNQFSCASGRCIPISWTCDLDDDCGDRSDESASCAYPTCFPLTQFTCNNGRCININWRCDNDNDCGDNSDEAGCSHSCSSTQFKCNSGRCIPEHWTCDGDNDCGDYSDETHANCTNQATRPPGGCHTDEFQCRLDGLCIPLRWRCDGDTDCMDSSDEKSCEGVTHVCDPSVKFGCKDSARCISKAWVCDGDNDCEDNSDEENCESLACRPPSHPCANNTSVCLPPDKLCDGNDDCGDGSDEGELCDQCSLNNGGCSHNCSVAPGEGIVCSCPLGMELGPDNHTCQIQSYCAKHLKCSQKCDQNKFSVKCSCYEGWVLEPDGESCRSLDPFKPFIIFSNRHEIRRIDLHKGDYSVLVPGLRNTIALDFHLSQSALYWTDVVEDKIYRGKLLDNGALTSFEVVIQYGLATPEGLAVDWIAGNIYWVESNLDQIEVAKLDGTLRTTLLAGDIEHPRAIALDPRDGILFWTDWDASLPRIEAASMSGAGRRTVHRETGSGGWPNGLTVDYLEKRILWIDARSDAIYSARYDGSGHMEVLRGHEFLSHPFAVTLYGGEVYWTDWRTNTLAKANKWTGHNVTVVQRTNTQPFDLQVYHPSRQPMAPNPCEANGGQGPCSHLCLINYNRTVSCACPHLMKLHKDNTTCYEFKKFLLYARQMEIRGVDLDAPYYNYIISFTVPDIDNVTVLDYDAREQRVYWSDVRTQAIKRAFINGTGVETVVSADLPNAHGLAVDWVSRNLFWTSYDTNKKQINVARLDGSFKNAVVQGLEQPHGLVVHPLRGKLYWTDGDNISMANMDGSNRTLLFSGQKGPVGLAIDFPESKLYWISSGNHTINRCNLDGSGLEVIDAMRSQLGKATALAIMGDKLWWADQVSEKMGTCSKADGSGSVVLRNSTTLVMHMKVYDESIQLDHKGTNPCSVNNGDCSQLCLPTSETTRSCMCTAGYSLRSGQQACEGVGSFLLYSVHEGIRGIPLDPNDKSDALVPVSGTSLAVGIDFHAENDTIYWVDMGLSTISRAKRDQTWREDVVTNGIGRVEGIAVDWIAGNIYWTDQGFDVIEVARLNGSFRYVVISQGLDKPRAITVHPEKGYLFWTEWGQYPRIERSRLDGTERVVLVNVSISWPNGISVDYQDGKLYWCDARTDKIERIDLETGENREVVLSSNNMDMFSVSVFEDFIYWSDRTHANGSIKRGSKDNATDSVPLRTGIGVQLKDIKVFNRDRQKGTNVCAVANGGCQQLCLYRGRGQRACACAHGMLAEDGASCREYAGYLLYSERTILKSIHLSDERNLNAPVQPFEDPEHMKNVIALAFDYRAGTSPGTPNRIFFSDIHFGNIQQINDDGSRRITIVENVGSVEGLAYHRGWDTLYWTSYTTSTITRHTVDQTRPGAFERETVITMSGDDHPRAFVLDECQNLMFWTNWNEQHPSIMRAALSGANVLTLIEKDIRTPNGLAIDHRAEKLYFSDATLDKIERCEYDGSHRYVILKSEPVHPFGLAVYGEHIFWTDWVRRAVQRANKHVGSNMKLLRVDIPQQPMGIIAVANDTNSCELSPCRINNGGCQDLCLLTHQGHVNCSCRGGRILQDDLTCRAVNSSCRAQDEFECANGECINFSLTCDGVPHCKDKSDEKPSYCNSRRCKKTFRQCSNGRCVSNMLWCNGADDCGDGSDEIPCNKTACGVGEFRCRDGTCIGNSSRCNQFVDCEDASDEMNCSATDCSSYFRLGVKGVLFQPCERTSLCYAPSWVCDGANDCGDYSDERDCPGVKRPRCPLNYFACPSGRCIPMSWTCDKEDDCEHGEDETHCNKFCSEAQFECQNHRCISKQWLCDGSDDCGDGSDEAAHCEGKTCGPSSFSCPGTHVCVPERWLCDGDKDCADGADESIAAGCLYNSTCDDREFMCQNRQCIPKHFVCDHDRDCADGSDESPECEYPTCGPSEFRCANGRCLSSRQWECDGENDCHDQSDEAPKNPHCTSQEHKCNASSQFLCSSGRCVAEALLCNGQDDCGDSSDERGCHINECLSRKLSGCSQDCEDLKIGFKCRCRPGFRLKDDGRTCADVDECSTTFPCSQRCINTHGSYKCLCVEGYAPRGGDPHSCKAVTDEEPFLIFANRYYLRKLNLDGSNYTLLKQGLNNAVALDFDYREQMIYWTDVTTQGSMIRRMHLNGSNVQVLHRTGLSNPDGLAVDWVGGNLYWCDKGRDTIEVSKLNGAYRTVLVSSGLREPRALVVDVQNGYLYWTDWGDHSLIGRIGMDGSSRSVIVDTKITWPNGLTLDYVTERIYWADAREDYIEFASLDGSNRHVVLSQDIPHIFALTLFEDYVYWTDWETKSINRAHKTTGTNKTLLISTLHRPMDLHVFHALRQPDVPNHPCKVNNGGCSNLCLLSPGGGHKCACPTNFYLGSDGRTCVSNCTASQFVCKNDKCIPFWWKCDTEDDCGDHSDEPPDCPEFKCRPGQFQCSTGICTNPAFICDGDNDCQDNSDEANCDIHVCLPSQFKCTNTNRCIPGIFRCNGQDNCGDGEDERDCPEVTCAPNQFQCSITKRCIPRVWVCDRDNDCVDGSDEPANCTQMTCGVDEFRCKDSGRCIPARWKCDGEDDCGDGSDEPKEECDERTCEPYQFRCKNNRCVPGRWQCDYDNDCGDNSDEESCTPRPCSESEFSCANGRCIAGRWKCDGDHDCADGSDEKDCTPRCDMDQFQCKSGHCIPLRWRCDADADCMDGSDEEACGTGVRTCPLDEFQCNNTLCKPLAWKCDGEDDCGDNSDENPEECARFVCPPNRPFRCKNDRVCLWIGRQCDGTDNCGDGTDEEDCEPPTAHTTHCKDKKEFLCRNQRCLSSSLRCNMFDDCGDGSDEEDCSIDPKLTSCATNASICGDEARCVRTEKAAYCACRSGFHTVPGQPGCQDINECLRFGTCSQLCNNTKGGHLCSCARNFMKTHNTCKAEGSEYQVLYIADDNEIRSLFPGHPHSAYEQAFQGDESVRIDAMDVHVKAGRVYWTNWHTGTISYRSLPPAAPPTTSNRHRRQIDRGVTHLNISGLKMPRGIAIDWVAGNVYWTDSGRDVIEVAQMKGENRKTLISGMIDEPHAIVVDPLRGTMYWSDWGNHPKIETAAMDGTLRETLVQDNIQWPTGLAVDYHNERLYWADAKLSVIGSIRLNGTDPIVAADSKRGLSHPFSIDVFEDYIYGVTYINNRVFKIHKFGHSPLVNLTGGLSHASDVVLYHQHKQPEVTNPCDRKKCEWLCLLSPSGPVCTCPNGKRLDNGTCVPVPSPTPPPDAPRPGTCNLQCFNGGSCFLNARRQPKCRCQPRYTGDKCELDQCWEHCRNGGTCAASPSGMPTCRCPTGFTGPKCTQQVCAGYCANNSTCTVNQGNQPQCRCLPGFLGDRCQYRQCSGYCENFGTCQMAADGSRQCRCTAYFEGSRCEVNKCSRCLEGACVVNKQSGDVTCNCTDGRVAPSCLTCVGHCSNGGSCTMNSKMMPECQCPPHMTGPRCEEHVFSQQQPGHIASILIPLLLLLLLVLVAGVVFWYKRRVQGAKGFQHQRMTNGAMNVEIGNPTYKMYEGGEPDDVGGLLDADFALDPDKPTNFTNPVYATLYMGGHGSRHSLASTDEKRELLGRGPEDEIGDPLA

Compound: CC(=O)O[C@H]1C(=O)[C@@]2(C)[C@H]([C@H](OC(=O)c3ccccc3)[C@]3(O)C[C@H](OC(=O)C(OC(=O)CCC(=O)NCCCC[C@H](NN[C@@H](Cc4ccccc4)C(=O)C(=O)C(CC(N)=O)NC(=O)[C@H](CC(N)=O)NC(=O)[C@H](CCCNC(=N)N)NC(=O)[C@H](CCCCNC(=O)CCC(=O)O[C@@H](C(=O)O[C@H]4C[C@@]5(O)[C@@H](OC(=O)c6ccccc6)[C@@H]6[C@]7(OC(C)=O)CO[C@@H]7C[C@H](O)[C@@]6(C)C(=O)[C@H](OC(C)=O)C(=C4C)C5(C)C)[C@@H](NC(=O)c4ccccc4)c4ccccc4)NNCC(=O)C(=O)[C@H](CCCNC(=N)N)NC(=O)[C@H](CO)NC(=O)CNC(=O)CNC(=O)C(Cc4ccc(O)cc4)NC(=O)[C@H](Cc4ccccc4)NC(=O)C(Cc4ccccc4)NCC(=O)[C@H](NC(=O)CCC(=O)O[C@@H](C(=O)O[C@H]4C[C@@]5(O)[C@@H](OC(=O)c6ccccc6)[C@@H]6[C@]7(OC(C)=O)CO[C@@H]7C[C@H](O)[C@@]6(C)C(=O)[C@H](OC(C)=O)C(=C4C)C5(C)C)[C@@H](NC(=O)c4ccccc4)c4ccccc4)C(C)O)C(=O)N[C@H](C(=O)NC(CCC(=O)O)C(=O)N[C@@H](CCC(=O)O)C(=O)NC(C=O)Cc4ccc(O)cc4)[C@@H](C)O)[C@@H](NC(=O)c4ccccc4)c4ccccc4)C(C)=C1C3(C)C)[C@]1(OC(C)=O)CO[C@@H]1C[C@@H]2O (stereo partly shown) [ANG1005]
Median overall survival (Kaplan-Meier estimate) [1]: increase median overall survival | Partial Response (PR), number of patients ([2]; All Patients (n = 23)): 5 | Partial Response (PR), percent of patients ([2]; All Patients (n = 23)): (22%) | Patient Benefit (PR + SD), number of patients ([2]; All Patients (n = 23)): 17 | Progressive Disease, number of patients ([2]; All Patients (n = 23)): 6 | Progressive Disease, percent of patients ([2]; All Patients (n = 23)): (26%) | Stable Disease (SD), number of patients ([2]; All Patients (n = 23)): 12 | Stable Disease (SD), percent of patients ([2]; All Patients (n = 23)): (52%) | Partial Response (PR), number of patients ([2]; HER2+ (n = 15)): 4 | Partial Response (PR), percent of patients ([2]; HER2+ (n = 15)): (27%) | Patient Benefit (PR + SD), number of patients ([2]; HER2+ (n = 15)): 12 | Progressive Disease, number of patients ([2]; HER2+ (n = 15)): 3 | Progressive Disease, percent of patients ([2]; HER2+ (n = 15)): (20%) | Stable Disease (SD), number of patients ([2]; HER2+ (n = 15)): 8 | Stable Disease (SD), percent of patients ([2]; HER2+ (n = 15)): (53%) | Partial Response (PR), number of patients ([2]; HER2− (n = 8)): 1 | Partial Response (PR), percent of patients ([2]; HER2− (n = 8)): (12.5%) | Patient Benefit (PR + SD), number of patients ([2]; HER2− (n = 8)): 5 | Patient Benefit (PR + SD), percent of patients ([2]; HER2− (n = 8)): (62.5%) | Progressive Disease, number of patients ([2]; HER2− (n = 8)): 3 | Progressive Disease, percent of patients ([2]; HER2− (n = 8)): (37.5%) | Stable Disease (SD), number of patients ([2]; HER2− (n = 8)): 4 | Stable Disease (SD), percent of patients ([2]; HER2− (n = 8)): (50%) | Response of leptomeningeal carcinomatosis ([3]; Subject 2, HER2+/ER−/PgR+, 7 cycles once every three weeks, dural lesion no longer apparent, leptomeningeal nodule decreasing in size): responded | Response of leptomeningeal carcinomatosis ([3]; Subject 3, HER2+/ER−/PgR−, 5 cycles once every three weeks): improved both radiographically and clinically | Adverse event causing treatment termination ([3]; Subject 3, after 5 cycles once every three weeks): pneumonia | Response of leptomeningeal carcinomatosis ([3]; Subject 4, HER2+/ER−/PgR−, 8 cycles once every three weeks, diminished nodular leptomeningeal enhancement, decreased leptomeningeal tumor burden): responded | Response of leptomeningeal carcinomatosis ([3]; Subject 8, HER2+/ER+/PgR−, 2 cycles once every three weeks, improvement in extensive LC in the cerebellum): responded

Effect on brain uptake of an Angiopep conjugate (LRP receptor [4]; RAP 200 nM): capable of reducing brain uptake
Compound: RAP: LRP ligand

Effect on uptake of the conjugates into cells (LRP receptor [5]): able to reduce uptake
Compound: TFFYGGSRGKRNNFKTEEY [Angiopep-2]

Effect on brain uptake of an Angiopep conjugate (LRP receptor [4]; aprotinin 10 μM): capable of reducing brain uptake
Compound: aprotinin
